{"source": "PubChem BioAssay (NCI)", "test_in_all_cases": "DTP human tumour cell line panel, 48 h", "key": {"NCI/ADR-RES ovarian": {"test_system": "NCI/ADR-RES ovarian"}, "HOP-92 NSCLC": {"test_system": "HOP-92 NSCLC"}, "MDA-MB-435": {"test_system": "MDA-MB-435"}, "MALME-3M melanoma": {"test_system": "MALME-3M melanoma"}, "SK-MEL-2 melanoma": {"test_system": "SK-MEL-2 melanoma"}, "ACHN renal": {"test_system": "ACHN renal"}, "SK-MEL-28 melanoma": {"test_system": "SK-MEL-28 melanoma"}, "SK-OV-3 ovarian": {"test_system": "SK-OV-3 ovarian"}, "RPMI-8226 leukemia": {"test_system": "RPMI-8226 leukemia"}, "CCRF-CEM leukemia": {"test_system": "CCRF-CEM leukemia"}, "IGROV1 ovarian": {"test_system": "IGROV1 ovarian"}, "A549 NSCLC": {"test_system": "A549 NSCLC"}, "OVCAR-8 ovarian": {"test_system": "OVCAR-8 ovarian"}, "M14 melanoma": {"test_system": "M14 melanoma"}, "786-0 renal": {"test_system": "786-0 renal"}, "HT29 colon": {"test_system": "HT29 colon"}, "T-47D breast": {"test_system": "T-47D breast"}, "SW-620 colon": {"test_system": "SW-620 colon"}, "UACC-62 melanoma": {"test_system": "UACC-62 melanoma"}, "KM12 colon": {"test_system": "KM12 colon"}, "OVCAR-5 ovarian": {"test_system": "OVCAR-5 ovarian"}, "NCI-H23 lung": {"test_system": "NCI-H23 lung"}, "NCI-H460 lung": {"test_system": "NCI-H460 lung"}, "TK-10 renal": {"test_system": "TK-10 renal"}, "COLO 205 colon": {"test_system": "COLO 205 colon"}, "CAKI-1 renal": {"test_system": "CAKI-1 renal"}, "SF-539 CNS": {"test_system": "SF-539 CNS"}, "DU-145 prostate": {"test_system": "DU-145 prostate"}, "UO-31 renal": {"test_system": "UO-31 renal"}}, "note": "Where “and” joins values, the source holds several entries; their conditions need not be identical. Equal entries are not always repeated.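 Assay format: 96-well plates, 48-hour exposure. GI50: concentration for 50% inhibition of growth. At the TGI there is no net growth.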", "data": [{"smiles": "COc1cc(Nc2ncc(F)c(Nc3ccc4c(n3)N(COP(=O)(O)O)C(=O)C(C)(C)O4)n2)cc(OC)c1OC", "values": [{"measurement": "GI50", "setting": "NCI/ADR-RES ovarian", "value": "2.99 µM and 3.01 µM"}, {"measurement": "TGI", "setting": "NCI/ADR-RES ovarian", "value": "17.2 µM and > 10 µM"}, {"measurement": "GI50", "setting": "HOP-92 NSCLC", "value": "1.25 µM and 0.345 µM"}, {"measurement": "TGI", "setting": "HOP-92 NSCLC", "value": "4.23 µM and 1.87 µM"}, {"measurement": "GI50", "setting": "MDA-MB-435", "value": "2.78 µM and 2.67 µM"}, {"measurement": "TGI", "setting": "MDA-MB-435", "value": "22 µM and > 10 µM"}, {"measurement": "GI50", "setting": "MALME-3M melanoma", "value": "3 µM and 5.93 µM"}, {"measurement": "TGI", "setting": "MALME-3M melanoma", "value": "17.8 µM and > 10 µM"}, {"measurement": "GI50", "setting": "SK-MEL-2 melanoma", "value": 5.81, "unit": "µM"}, {"measurement": "TGI", "setting": "SK-MEL-2 melanoma", "value": "53.3 µM and > 10 µM"}, {"measurement": "GI50", "setting": "ACHN renal", "value": "1.12 µM and 1.21 µM"}, {"measurement": "TGI", "setting": "ACHN renal", "value": "12.2 µM and > 10 µM"}, {"measurement": "GI50", "setting": "SK-MEL-28 melanoma", "value": "3.69 µM and 5.05 µM"}, {"measurement": "TGI", "setting": "SK-MEL-28 melanoma", "value": "21 µM and > 10 µM"}, {"measurement": "GI50", "setting": "SK-OV-3 ovarian", "value": "0.972 µM and 0.707 µM"}, {"measurement": "TGI", "setting": "SK-OV-3 ovarian", "value": "3.46 µM and 2.98 µM"}, {"measurement": "GI50", "setting": "RPMI-8226 leukemia", "value": "3.55 µM and 4.34 µM"}, {"measurement": "TGI", "setting": "RPMI-8226 leukemia", "value": "> 31.3", "unit": "µM"}, {"measurement": "GI50", "setting": "CCRF-CEM leukemia", "value": "3.09 µM and 3.84 µM"}, {"measurement": "TGI", "setting": "CCRF-CEM leukemia", "value": "44.8 µM and > 10 µM"}, {"measurement": "GI50", "setting": "IGROV1 ovarian", "value": "0.457 µM and 0.342 µM"}, {"measurement": "TGI", "setting": "IGROV1 ovarian", "value": "2.22 µM and 2.11 µM"}, {"measurement": "GI50", "setting": "A549 NSCLC", "value": "2.27 µM and 2.11 µM"}, {"measurement": "TGI", "setting": "A549 NSCLC", "value": "> 26.8", "unit": "µM"}, {"measurement": "GI50", "setting": "OVCAR-8 ovarian", "value": "3.33 µM and 3.07 µM"}, {"measurement": "TGI", "setting": "OVCAR-8 ovarian", "value": "16.5 µM and > 10 µM"}, {"measurement": "GI50", "setting": "M14 melanoma", "value": "2.71 µM and 2.88 µM"}, {"measurement": "TGI", "setting": "M14 melanoma", "value": "29.4 µM and > 10 µM"}, {"measurement": "GI50", "setting": "786-0 renal", "value": "1.32 µM and 0.858 µM"}, {"measurement": "TGI", "setting": "786-0 renal", "value": "6.53 µM and 2.86 µM"}, {"measurement": "GI50", "setting": "HT29 colon", "value": 1.66, "unit": "µM"}, {"measurement": "TGI", "setting": "HT29 colon", "value": "10.7 µM and > 10 µM"}, {"measurement": "GI50", "setting": "T-47D breast", "value": "2.92 µM and 1.24 µM"}, {"measurement": "TGI", "setting": "T-47D breast", "value": "26 µM and > 10 µM"}, {"measurement": "GI50", "setting": "SW-620 colon", "value": "3.6 µM and 3.98 µM"}, {"measurement": "TGI", "setting": "SW-620 colon", "value": "> 84.4", "unit": "µM"}, {"measurement": "GI50", "setting": "UACC-62 melanoma", "value": "2.1 µM and 1.64 µM"}, {"measurement": "TGI", "setting": "UACC-62 melanoma", "value": "12 µM and > 10 µM"}, {"measurement": "GI50", "setting": "KM12 colon", "value": "0.498 µM and 0.409 µM"}, {"measurement": "TGI", "setting": "KM12 colon", "value": "15.4 µM and > 10 µM"}, {"measurement": "GI50", "setting": "OVCAR-5 ovarian", "value": "1.7 µM and 1.38 µM"}, {"measurement": "TGI", "setting": "OVCAR-5 ovarian", "value": "9.62 µM and > 10 µM"}, {"measurement": "GI50", "setting": "NCI-H23 lung", "value": "2.51 µM and 2.57 µM"}, {"measurement": "TGI", "setting": "NCI-H23 lung", "value": "22.7 µM and > 10 µM"}, {"measurement": "GI50", "setting": "NCI-H460 lung", "value": "3.59 µM and 3.45 µM"}, {"measurement": "TGI", "setting": "NCI-H460 lung", "value": "> 100", "unit": "µM"}, {"measurement": "GI50", "setting": "TK-10 renal", "value": "0.774 µM and 0.768 µM"}, {"measurement": "TGI", "setting": "TK-10 renal", "value": 3.06, "unit": "µM"}, {"measurement": "GI50", "setting": "COLO 205 colon", "value": "2.03 µM and 1.31 µM"}, {"measurement": "TGI", "setting": "COLO 205 colon", "value": "5.37 µM and 3.59 µM"}, {"measurement": "GI50", "setting": "CAKI-1 renal", "value": "0.456 µM and 0.645 µM"}, {"measurement": "TGI", "setting": "CAKI-1 renal", "value": "1.9 µM and > 10 µM"}, {"measurement": "GI50", "setting": "SF-539 CNS", "value": "0.605 µM and 0.454 µM"}, {"measurement": "TGI", "setting": "SF-539 CNS", "value": "1.94 µM and 1.81 µM"}, {"measurement": "GI50", "setting": "DU-145 prostate", "value": "3.69 µM and 3.08 µM"}, {"measurement": "TGI", "setting": "DU-145 prostate", "value": "22.3 µM and > 10 µM"}, {"measurement": "GI50", "setting": "UO-31 renal", "value": "0.685 µM and 0.348 µM"}, {"measurement": "TGI", "setting": "UO-31 renal", "value": "5.72 µM and 1.65 µM"}]}]}
